Conditions: Liquid, Vibrating tube method

CCCCCCCCCC [decane]
Conditions	mass density [kg/m3]
333.15 K, 34442 kPa	727.7
333.15 K, 34445 kPa	727.8
333.16 K, 815 kPa	699.9
333.16 K, 842 kPa	699.9
333.16 K, 881 kPa	700
333.16 K, 941 kPa	700
333.16 K, 2806 kPa	701.9
333.16 K, 2881 kPa	702
333.16 K, 2921 kPa	701.9
333.16 K, 3005 kPa	702
333.16 K, 4814 kPa	703.9
333.16 K, 4927 kPa	703.9
333.16 K, 5007 kPa	704
333.16 K, 5592 kPa	704.7
333.16 K, 5608 kPa	704.7
333.16 K, 5623 kPa	704.7
333.16 K, 5704 kPa	704.7
333.16 K, 5748 kPa	704.8
333.16 K, 5756 kPa	704.7
333.16 K, 5775 kPa	704.7
333.16 K, 5795 kPa	704.8
333.16 K, 5811 kPa	704.9
333.16 K, 5830 kPa	704.8
333.16 K, 5852 kPa	704.8
333.16 K, 5874 kPa	704.9
333.16 K, 5896 kPa	704.9
333.16 K, 5917 kPa	705
333.16 K, 5934 kPa	704.9
333.16 K, 5956 kPa	704.9
333.16 K, 5973 kPa	705
333.16 K, 6001 kPa	704.9
333.16 K, 6018 kPa	705
333.16 K, 6045 kPa	704.9
333.16 K, 6069 kPa	705.1
333.16 K, 6092 kPa	705
333.16 K, 6116 kPa	705.1
333.16 K, 6643 kPa	705.5
333.16 K, 6667 kPa	705.5
333.16 K, 6688 kPa	705.6
333.16 K, 6713 kPa	705.6
333.16 K, 6738 kPa	705.6
333.16 K, 6763 kPa	705.7
333.16 K, 6796 kPa	705.7
333.16 K, 6822 kPa	705.8
333.16 K, 6844 kPa	705.8
333.16 K, 7378 kPa	706.3
333.16 K, 7414 kPa	706.2
333.16 K, 7450 kPa	706.4
333.16 K, 7482 kPa	706.3
333.16 K, 7512 kPa	706.3
333.16 K, 7550 kPa	706.4
333.16 K, 7575 kPa	706.4
333.16 K, 7610 kPa	706.5
333.16 K, 7628 kPa	706.3
333.16 K, 7651 kPa	706.4
333.16 K, 7667 kPa	706.6
333.16 K, 7693 kPa	706.5
333.16 K, 7720 kPa	706.6
333.16 K, 7744 kPa	706.6
333.16 K, 7771 kPa	706.7
333.16 K, 7795 kPa	706.6
333.16 K, 7812 kPa	706.5
333.16 K, 7830 kPa	706.6
333.16 K, 7853 kPa	706.7
333.16 K, 7871 kPa	706.8
333.16 K, 7897 kPa	706.8
333.16 K, 7918 kPa	706.7
333.16 K, 7939 kPa	706.8
333.16 K, 7960 kPa	706.7
333.16 K, 7987 kPa	706.8
333.16 K, 8006 kPa	706.9
333.16 K, 8033 kPa	706.9
333.16 K, 8049 kPa	706.9
333.16 K, 8068 kPa	707
333.16 K, 8410 kPa	707.1
333.16 K, 8437 kPa	707.2
333.16 K, 8464 kPa	707.2
333.16 K, 8484 kPa	707.2
333.16 K, 8592 kPa	707.4
333.16 K, 8666 kPa	707.4
333.16 K, 8688 kPa	707.6
333.16 K, 8718 kPa	707.4
333.16 K, 8769 kPa	707.5
333.16 K, 8949 kPa	707.7
333.16 K, 8971 kPa	707.7
333.16 K, 9005 kPa	707.7
333.16 K, 9029 kPa	707.7
333.16 K, 9051 kPa	707.7
333.16 K, 9073 kPa	707.8
333.16 K, 9099 kPa	707.9
333.16 K, 9121 kPa	707.7
333.16 K, 9143 kPa	707.9
333.16 K, 9169 kPa	707.8
333.16 K, 9191 kPa	707.9
333.16 K, 9214 kPa	707.9
333.16 K, 9234 kPa	708
333.16 K, 9254 kPa	707.9
333.16 K, 9280 kPa	707.9
333.16 K, 9303 kPa	708.1
333.16 K, 9330 kPa	708
333.16 K, 9521 kPa	708.1
333.16 K, 9549 kPa	708.2
333.16 K, 9737 kPa	708.4
333.16 K, 9763 kPa	708.4
333.16 K, 9789 kPa	708.4
333.16 K, 9818 kPa	708.4
333.16 K, 12216 kPa	710.6
333.16 K, 12245 kPa	710.6
333.16 K, 12280 kPa	710.7
333.16 K, 12305 kPa	710.7
333.16 K, 12351 kPa	710.7
333.16 K, 12386 kPa	710.7
333.16 K, 12427 kPa	710.8
333.16 K, 12458 kPa	710.8
333.16 K, 12492 kPa	710.8
333.16 K, 12528 kPa	710.8
333.16 K, 12561 kPa	710.9
333.16 K, 12601 kPa	711
333.16 K, 12638 kPa	710.9
333.16 K, 12670 kPa	711
333.16 K, 12704 kPa	711
333.16 K, 12735 kPa	711
333.16 K, 12766 kPa	711
333.16 K, 12792 kPa	711.1
333.16 K, 12824 kPa	711.1
333.16 K, 13106 kPa	711.4
333.16 K, 13133 kPa	711.4
333.16 K, 13377 kPa	711.5
333.16 K, 13399 kPa	711.4
333.16 K, 13418 kPa	711.7
333.16 K, 13441 kPa	711.6
333.16 K, 13459 kPa	711.6
333.16 K, 13476 kPa	711.7
333.16 K, 13493 kPa	711.7
333.16 K, 13510 kPa	711.7
333.16 K, 13525 kPa	711.7
333.16 K, 13537 kPa	711.6
333.16 K, 13554 kPa	711.7
333.16 K, 13566 kPa	711.8
333.16 K, 13581 kPa	711.8
333.16 K, 13900 kPa	711.9
333.16 K, 14258 kPa	712.3
333.16 K, 14275 kPa	712.3
333.16 K, 14293 kPa	712.4
333.16 K, 14310 kPa	712.3
333.16 K, 14334 kPa	712.3
333.16 K, 14348 kPa	712.4
333.16 K, 14369 kPa	712.4
333.16 K, 14389 kPa	712.4
333.16 K, 14403 kPa	712.4
333.16 K, 14421 kPa	712.5
333.16 K, 14436 kPa	712.4
333.16 K, 14457 kPa	712.6
333.16 K, 14470 kPa	712.5
333.16 K, 14484 kPa	712.6
333.16 K, 14501 kPa	712.6
333.16 K, 14514 kPa	712.5
333.16 K, 14528 kPa	712.6
333.16 K, 14543 kPa	712.4
333.16 K, 14559 kPa	712.6
333.16 K, 14581 kPa	712.6
333.16 K, 14601 kPa	712.6
333.16 K, 14623 kPa	712.6
333.16 K, 14640 kPa	712.6
333.16 K, 14660 kPa	712.7
333.16 K, 14678 kPa	712.6
333.16 K, 14696 kPa	712.7
333.16 K, 14711 kPa	712.7
333.16 K, 14728 kPa	712.8
333.16 K, 14750 kPa	712.8
333.16 K, 14770 kPa	712.8
333.16 K, 14785 kPa	712.7
333.16 K, 14808 kPa	712.8
333.16 K, 14828 kPa	712.8
333.16 K, 14846 kPa	712.8
333.16 K, 14864 kPa	712.9
333.16 K, 14881 kPa	712.7
333.16 K, 14984 kPa	712.9
333.16 K, 15187 kPa	713
333.16 K, 15232 kPa	713.1
333.16 K, 15248 kPa	713.1
333.16 K, 15291 kPa	713.1
333.16 K, 15313 kPa	713.2
333.16 K, 15331 kPa	713.3
333.16 K, 15356 kPa	713.2
333.16 K, 15370 kPa	713.2
333.16 K, 15519 kPa	713.4
333.16 K, 15581 kPa	713.3
333.16 K, 18702 kPa	716
333.16 K, 18825 kPa	715.9
333.16 K, 21785 kPa	718.5
333.16 K, 21820 kPa	718.6
333.16 K, 25349 kPa	721.2
333.16 K, 25383 kPa	721.2
333.16 K, 25434 kPa	721.3
333.16 K, 25480 kPa	721.3
333.16 K, 25520 kPa	721.3
333.16 K, 25560 kPa	721.3
333.16 K, 25612 kPa	721.4
333.16 K, 25653 kPa	721.5
333.16 K, 26114 kPa	721.7
333.16 K, 26176 kPa	721.8
333.16 K, 26222 kPa	721.8
333.16 K, 26260 kPa	721.9
333.16 K, 26304 kPa	721.8
333.16 K, 26342 kPa	721.9
333.16 K, 27466 kPa	722.8
333.16 K, 27509 kPa	722.8
333.16 K, 27558 kPa	722.8
333.16 K, 27603 kPa	722.9
333.16 K, 27660 kPa	722.9
333.16 K, 27703 kPa	722.9
333.16 K, 27755 kPa	722.9
333.16 K, 27812 kPa	723
333.16 K, 27849 kPa	723.1
333.16 K, 27894 kPa	723.1
333.16 K, 27945 kPa	723
333.16 K, 27985 kPa	723.2
333.16 K, 28031 kPa	723.2
333.16 K, 28077 kPa	723.1
333.16 K, 28117 kPa	723.2
333.16 K, 28185 kPa	723.3
333.16 K, 28218 kPa	723.2
333.16 K, 28262 kPa	723.3
333.16 K, 28293 kPa	723.4
333.16 K, 28324 kPa	723.5
333.16 K, 28354 kPa	723.3
333.16 K, 28395 kPa	723.5
333.16 K, 28436 kPa	723.4
333.16 K, 28472 kPa	723.5
333.16 K, 28508 kPa	723.5
333.16 K, 28555 kPa	723.6
333.16 K, 28586 kPa	723.5
333.16 K, 29016 kPa	723.9
333.16 K, 29059 kPa	724
333.16 K, 29107 kPa	724
333.16 K, 29157 kPa	724.1
333.16 K, 29189 kPa	724
333.16 K, 29233 kPa	724
333.16 K, 29260 kPa	724.2
333.16 K, 29300 kPa	724.2
333.16 K, 29339 kPa	724.2
333.16 K, 29378 kPa	724.2
333.16 K, 29411 kPa	724.2
333.16 K, 29456 kPa	724.2
333.16 K, 29495 kPa	724.1
333.16 K, 29541 kPa	724.3
333.16 K, 29575 kPa	724.4
333.16 K, 29625 kPa	724.4
333.16 K, 29666 kPa	724.3
333.16 K, 29700 kPa	724.3
333.16 K, 29730 kPa	724.6
333.16 K, 29759 kPa	724.5
333.16 K, 29794 kPa	724.6
333.17 K, 25689 kPa	721.5
333.17 K, 25730 kPa	721.5
333.17 K, 25766 kPa	721.6
333.17 K, 25801 kPa	721.5
333.17 K, 25849 kPa	721.7
333.17 K, 25908 kPa	721.7
333.17 K, 25950 kPa	721.7
333.17 K, 25992 kPa	721.7
333.17 K, 26034 kPa	721.7
333.17 K, 26071 kPa	721.8
333.17 K, 28623 kPa	723.6
333.17 K, 28670 kPa	723.7
333.17 K, 28702 kPa	723.6
333.17 K, 28729 kPa	723.8
333.17 K, 28761 kPa	723.8
333.17 K, 28807 kPa	723.7
333.17 K, 28849 kPa	723.8
333.17 K, 28887 kPa	723.7
333.17 K, 28930 kPa	724
333.17 K, 28974 kPa	723.9
